Results: patent US20240158446A1, “CYCLIC COMPOUND HAVING SELECTIVE INHIBITORY ACTION ON KRAS OVER HRAS AND NRAS” (CHUGAI SEIYAKU KABUSHIKI KAISHA, priority 2021, published 2024)
*1 amine or outer side, *2 acyl side, *3 side chain or, on linkers, in order; H or OH if unused. Where a SMILES comes first, the peptide text is derived from it. Bridges are numbered along the chain shown (N, C = ends). [ ]: non-standard residue; d: D form. The star is where a group is joined. hPhe(3,5-F2-4-CF3) = N[C@@H](CCc1cc(F)c(C(F)(F)F)c(F)c1)C(=O)O; hPhe(3-Cl-4-CF3) = N[C@@H](CCc1ccc(C(F)(F)F)c(Cl)c1)C(=O)O; NPrPhe(4-CF3) = CCCN[C@@H](Cc1ccc(C(F)(F)F)cc1)C(=O)O; NEtPhe(4-Me) = CCN[C@@H](Cc1ccc(C)cc1)C(=O)O; X14 = CN([C@@H](CCCCC=[*:3])C(=O)[*:2])[*:1]; dαMeAlg = C[C@](CC=[*:3])(N[*:1])C(=O)[*:2]; NMeGly(cPent) = CN[C@H](C(=O)O)C1CCCC1; Hyp = O=C(O)[C@@H]1C[C@@H](O)CN1; NMeD = CN[C@@H](CC(=O)O)C(=O)O; NMeL = CN[C@@H](CC(C)C)C(=O)O; NMeV = CN[C@H](C(=O)O)C(C)C; Morpholide = C1CN(*)CCO1; Ac5c = NC1(C(=O)O)CCCC1; Sar = CNCC(=O)O

Experiments:
[1] = biological target: GDP-bound NRAS wild-type protein (Homo sapiens, UniProt P01111); experiment: Binding to NRAS by surface plasmon resonance (SPR), Single Cycle Kinetics; settings: SPR, GDP-bound NRAS wild-type protein vs GDP-bound KRAS wild-type protein
[2] = biological target: GDP-bound HRAS wild-type protein (Homo sapiens, UniProt P01112); experiment: Binding to HRAS by surface plasmon resonance (SPR), Single Cycle Kinetics; settings: SPR, GDP-bound HRAS wild-type protein vs GDP-bound KRAS wild-type protein
[3] = test system: human lung cancer strain NCI-H441;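 also: cell proliferation inhibition after four days measured by CellTiter-Glo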

GDP-bound HRAS wild-type protein, sequence (P01112 whole entry): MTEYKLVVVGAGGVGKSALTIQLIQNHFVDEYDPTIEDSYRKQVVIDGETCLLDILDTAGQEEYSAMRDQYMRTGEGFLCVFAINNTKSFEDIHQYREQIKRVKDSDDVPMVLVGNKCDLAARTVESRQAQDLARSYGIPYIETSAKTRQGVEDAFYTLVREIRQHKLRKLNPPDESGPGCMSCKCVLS
GDP-bound NRAS wild-type protein, sequence (P01111 whole entry): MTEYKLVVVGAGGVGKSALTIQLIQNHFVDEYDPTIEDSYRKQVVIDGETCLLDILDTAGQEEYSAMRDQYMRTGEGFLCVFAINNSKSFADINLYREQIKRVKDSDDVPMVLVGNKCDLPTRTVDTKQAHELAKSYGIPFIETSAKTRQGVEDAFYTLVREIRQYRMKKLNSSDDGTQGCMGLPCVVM

IC50 [3]	SMILES	NRAS/KRAS (ratio of KD value for NRAS to KD value for KRAS) [1]	HRAS/KRAS (ratio of KD value for HRAS to KD value for KRAS) [2]	NRAS/KRAS (ratio of KD value with respect to NRAS to KD value with respect to KRAS) [1]	HRAS/KRAS (ratio of KD value with respect to HRAS to KD value with respect to KRAS) [2]
286 nM	CCO[C@@H]1C[C@H]2C(=O)NC3(CCC3)C(=O)N(C)[C@@H](C3CCCC3)C(=O)N(C)[C@H](C(=O)N(C)C)CC(=O)N(CC)[C@@H](CC(C)C)C(=O)N[C@@H]([C@@H](C)CC)C(=O)N(C)CC(=O)N(C)[C@H]3CC(C)=C(C)CN(C3=O)[C@@H](Cc3ccc(C(F)(F)F)cc3)C(=O)N(C)CC(=O)N[C@@H](CCc3cc(F)c(C(F)(F)F)c(F)c3)C(=O)N2C1 [PP1051]	C (A compound having a KD ratio of 0.1 or more and less than 3 is denoted as C)	C (A compound having a KD ratio of 0.1 or more and less than 3 is denoted as C)	–	–
38.4 nM	CC[C@H](C)[C@@H]1NC(=O)[C@H](CC(C)C)N(C)C(=O)C[C@@H](C(=O)N(C)C)N(C)C(=O)[C@H](C2CCCC2)N(C)C(=O)C2(CCCC2)NC(=O)[C@@H]2CCCN2C(=O)[C@H](CCc2ccc(C(F)(F)F)c(Cl)c2)NC(=O)CN(C)C(=O)[C@H](Cc2ccc(C)cc2)N2CC=C(C)C[C@@H](C2=O)N(C)C(=O)CN(C)C1=O [PP0620]	–	–	C (A compound having a KD ratio of 0.1 or more and less than 3 is denoted as C)	C (A compound having a KD ratio of 0.1 or more and less than 3 is denoted as C)
72.6 nM	CCCN1C(=O)CN(C)C(=O)CN(C)C(=O)[C@H]([C@@H](C)CC)NC(=O)[C@@H]2CCCCC=CC[C@@](C)(NC(=O)[C@@H]3C[C@@H](OCC)CN3C(=O)[C@H](CCc3cc(F)c(C(F)(F)F)c(F)c3)NC(=O)CN(C)C(=O)[C@@H]1Cc1ccc(C(F)(F)F)cc1)C(=O)N(C)[C@@H](C1CCCC1)C(=O)N(C)[C@H](C(=O)N1CCOCC1)CC(=O)N2C [PP0902] ([X14]I[Sar][Sar][NPrPhe(4-CF3)][Sar][hPhe(3,5-F2-4-CF3)][Hyp](Et)[dαMeAlg][NMeGly(cPent)][NMeD]-Morpholide; staple 1-9; lactam N-11)	A (a compound having 10 or more and less than 20 is denoted as A)	B (a compound having 3 or more and less than 10 is denoted as B)	–	–
445 nM	CCO[C@@H]1C[C@H]2C(=O)NC3(CCC3)C(=O)N(C)[C@@H](C3CCCC3)C(=O)N(C)[C@H](C(=O)N3CCOCC3)CC(=O)N(C)[C@@H](CC(C)C)C(=O)N[C@@H]([C@@H](C)CC)C(=O)N(C)CC(=O)N(C)[C@H]3CCCCCN(C3=O)[C@@H](Cc3nccs3)C(=O)N(C)CC(=O)N[C@@H](CCc3cc(F)c(C(F)(F)F)c(F)c3)C(=O)N2C1 [PP0923]	B (a compound having 3 or more and less than 10 is denoted as B)	B (a compound having 3 or more and less than 10 is denoted as B)	–	–
142 nM	CC[C@H](C)[C@@H]1NC(=O)[C@H](CC(C)C)N(C)C(=O)C[C@@H](C(=O)N2CCOCC2)N(C)C(=O)[C@H](C(C)C)N(C)C(=O)C2(CCCC2)NC(=O)[C@@H]2CCCN2C(=O)[C@H](CCc2ccc(C(F)(F)F)c(Cl)c2)NC(=O)CN(C)C(=O)[C@H](Cc2ccc(C)cc2)N(CC)C(=O)CN(C)C(=O)CN(C)C1=O [PP0044] ([NMeL]I[Sar][Sar][NEtPhe(4-Me)][Sar][hPhe(3-Cl-4-CF3)]P[Ac5c][NMeV][NMeD]-Morpholide; lactam N-11)	C (A compound having a KD ratio of 0.1 or more and less than 3 is denoted as C)	C (A compound having a KD ratio of 0.1 or more and less than 3 is denoted as C)	–	–
